Source: patent publication US20130331417A1, “INSECTICIDAL MIXTURES WITH IMPROVED PROPERTIES” (BAYER INTELLECTUAL PROPERTY GMBH, priority 2010, published 2013)

Assays:
[1] = test system: Aphis gossypii; test: Aphis gossypii test, cotton seed treatment; type: in vivo
Procedure: (§1) The expected efficacy of a given combination of two compounds is calculated as follows (see Colby, S .R., “Calculating Synergistic and antagonistic Responses of Herbicide Combinations”, Weeds 15, pp. 20-22, 1967):
(§2) If the observed insecticidal efficacy of the combination is higher than the one calculated as “E”, then the combination of the two compounds is more than additive, i.e., there is a synergistic effect.
(§3) If not mentioned otherwise, the crystalline modification I of 4-{[(6-chloropyrid-3-yl)methyl](methyl)amino} furan-2(5H)-one has been prepared as a water-dispersible or water-soluble powder in an active ingredient concentration of 70% (wt/wt) involving the following formulation auxiliaries, whereas the amount of auxiliaries sums up to 100 wt. %:
(§4) The auxiliaries were mixed with the appropriate amount of the crystalline modification I of 4-{[(6-chloropyrid-3-yl)methyl](methyl)amino} furan-2(5H)-one. There is no water or solvent added. To enable the dry mixture to stick on the seed, the seed were treated with a minimal amount of water, namely 30 μl for 2 g canola seeds, and 800 μl für 20 g cotton seeds.
Cotton seeds were treated with the compounds or mixtures and sown. 10 days after germination the plants were infested with a mixed population of the cotton aphid (Aphis gossypii). After the specified period of time, the mortality in % is determined 100% means that all the aphids have been killed; 0% means that none of the aphids have been killed.

[2] = test system: Myzus persicae; test: Myzus persicae test, oil seed rape seed treatment; type: in vivo; conditions: after 2 days
Procedure: as §1, §2, §3, §4
Seeds of Oil seed rape were treated with the compounds or mixtures and sown. Ca. […]
After the specified period of time, the mortality in % is determined 100% means that all the aphids have been killed; 0% means that none of the aphids have been killed.

SMILES: O=[N+]([O-])NC1=NCCN1Cc1ccc(Cl)nc1 [Imidacloprid]
- Mortality ([1]; after 3 days, 0.01 mg ai/seed): 0%

SMILES: CCOC(=O)OC1=C(c2cc(C)ccc2C)C(=O)N[C@]12CC[C@@H](OC)CC2 [Spirotetramat]
- Mortality ([1]; after 2 days, 5 mg ai/seed): 0%

SMILES: CN(Cc1ccc(Cl)nc1)C1=CC(=O)OC1 [4-{[(6-chloropyrid-3-yl)methyl](methyl)amino} furan-2(5H)-one]
- Mortality ([2]; 0.025 mg ai/seed, infested ca. 35 days after germination): 40%
- Mortality ([1]; after 2 days (head above the row), 0.01 mg ai/seed): 60%
- Mortality ([1]; after 2 days, 0.025 mg ai/seed, infested 10 days after germination): 35%

SMILES: C/C(=N\C#N)N(C)Cc1ccc(Cl)nc1 [Acetamiprid]
- Mortality ([2]; 1 mg ai/seed): 0%
